Data taken from US20140120577A1, “Metalloporphyrin Inducible Promoter” (CHR HANSEN A/S, priority 2011, published 2014).
Where two headings read alike, the source gives them in different places.

What was measured:
[1] = system: promoter of the ygƒCBA operon (Pheme); assay: lacZ reporter (beta-galactosidase) induction in Streptococcus agalactiae NEM316; type: cell-based; settings: for amount of inducer resulting in optimal induction: 1 or 10 μM tested; for induction (in words): BHI-Tris-glucose, non-aerated and aerated cultures; for induction of the promoter (in words): summary statement; for induction over background without hemin: M17-glucose, added at OD600 ~0.3, 1 hour
Description: The pTCV-lac plasmid was used to transform the Streptococcus agalactiae strain NEM316. The transformants were selected on solid M17-glucose (0.5%) medium containing erythromycin 3 μg/ml.
Hemin and PPIX-Ga solutions are prepared as described in Example 2 above.
The Streptococcus agalactiae cells carrying the plasmid are precultured overnight at 37° C. in M17-glucose (0.2%) and 3 μg/ml erythromycin, or in BHI-Tris medium supplemented with 3 μg/ml erythromycin.
The following day, the precultures are diluted 100-fold in new M17-glucose (1%) medium supplemented with 3 μg/ml erythromycin, or BHI-Tris-glucose (0.5% final concentration), and 3 μg/ml erythromycin. The cultures are grown at 37° C. either under non-aeration conditions or under aeration conditions and growth is monitored by measuring the OD600 as described above for Lactococcus lactis.
The inducer is added during growth when bacteria exit the lag phase (OD600=˜0.25 to 0.3).
Cells are recovered from the cultures at OD600=1, and bacterial beta-galactosidase activity is quantified as described in Example 2 above.

[2] = system: promoter of the ygƒCBA operon (Pheme); assay: lacZ reporter (beta-galactosidase, Miller method) induction from pTCV Pheme-ygfC-lacZ plasmid in L. lactis MG1363; type: cell-based, Lactococcus lactis; settings: for fold induction of beta-galactosidase: M17-glucose (1%)
Description: The pTCV-lac plasmid was used to transform the L. lactis strain MG1363. The transformants were selected on M17 plus glucose (0.5%) solid medium containing erythromycin 3 μg/ml. Colonies were purified and cells stored at −80° C.
Hemin solution is prepared at 20 mM in 50 mM NaOH, and aliquoted for storage at −20° C.; one tube is used for each assay and is then discarded.
PPIX-Ga solution is prepared at 10 mM in dimethylsulfoxide, and prepared in aliquots for storage at −20° C.; one tube is used for each assay and is then discarded.
The L. lactis cells carrying the plasmid are precultured overnight at 30° C. under non-aeration conditions in M17-glucose (0.5%) medium or BHI-Tris (note that BHI includes 0.2% glucose). The media are supplemented with 3 μg/ml erythromycin to maintain the plasmid.
The following day, the precultures are diluted 100-fold in new M17-glucose (1%) medium or BHI-Tris medium (0.5% final glucose concentration), and containing 3 μg/ml erythromycin. The cultures are grown at 30° C. either under non-aeration conditions (nonagitated cultures in full bottles), or under aeration conditions (cultures in conical flasks with baffles, one tenth full; agitation at 170 rpm in the presence of air). The growth is monitored by measuring the OD600.
The inducer is added either simultaneously with the bacteria, or during growth when the bacteria exit the lag phase (OD600=˜0.1 in M17-glucose [1%] medium, OD600=˜0.2 to 0.3 in BHI-Tris-glucose medium).
Cells are recovered from the cultures at OD600=1, and beta-galactosidase activity of the bacterial extracts is quantified by the Miller method (MILLER, Experiments in molecular genetics. Cold Spring Harbor Laboratory Press, Cold Spring Harbor, N.Y., 1972). In the presence of o-nitrophenyl-β-D-galactoside (ONPG), beta-galactosidase produces yellow-colored O-nitrophenol which can be assayed by measuring the optical density at 420 nm (A420); Beta-galactosidase activity of each sample is measured in Miller units by the following formula: 1000×A420/T(min)×V(ml)×A600. This formula measures activity in a cell sample, such that the value is standardized to the same cell biomass (given as the A600 value).

[3] = system: PhemeygƒC inducible system; assay: PHEME-ygƒC-lacZ reporter induction in Lactobacillus casei (BETA-GLO test); type: cell-based; settings: 10 μM hemin; MRS; static or aerated; 1 hour; endogenous background subtracted
Description: The pTCV-PhemeygƒC-lacZ plasmid described in Example 1 was used to transform a Lactobacillus casei laboratory strain. Transformants were selected on solid MRS medium containing erythromycin 3 μg/ml.
Hemin was prepared as described in Example 2 above.
The Lactobacillus casei cells carrying the pTCV-PhemeygƒC-lacZ plasmid were precultured overnight at 37° C. in MRS containing 3 μg/ml erythromycin. […] This was used as a control for background due to endogenous beta-galactosidase activity present in this species.
The following day, the precultures were diluted 20-fold in fresh MRS medium supplemented with 3 μg/ml erythromycin. The cultures were grown at 37° C. under static and aeration conditions and growth was monitored by measuring the OD600 as described above for Lactococcus lactis. The hemin inducer (10 μM final concentration) was added during growth once bacteria were in exponential phase (OD600=˜0.4).
Cells in mid exponential phase (OD600=˜0.4) were recovered from the cultures after 1 hour in the presence of the hemin inducer and the volumes were adjusted to a final fixed OD600 for the assay. In this experiment, bacterial beta-galactosidase activity is quantified using the commercially available BETA-GLO test (Promega), following manufacturer instructions.

ygƒCBA operon = settings: 100 μM heme, cited from earlier work
[4] = BHI-Tris-glucose medium, non-aeration or aeration

For `C=CC1=C(C)C2=[N+]3C1=Cc1c(C)c(C=C)c4[n]1[Ga-]31[n]3c(c(C)c(CCC(=O)O)c3=CC3=[N+]1C(=C4)C(C)=C3CCC(=O)O)=C2` (stereo not drawn) [Ga-PPIX, gallium-protoporphyrin IX], the “amount of inducer resulting in optimal induction” value (“amount of inducer resulting” below) [1, 4] was 10 µM, the “induction (in words)” value [1] was “efficient” and the “induction of the promoter (in words)” value [1] was “efficient inducers”. The “fold induction of beta-galactosidase” value ([2]; non-aeration (static), 10 or 20 μM added during growth (OD600 ~0.1)) was 120 fold, the “fold induction of beta-galactosidase” value ([2]; non-aeration (static), 10 or 20 μM added simultaneously with the bacteria) was 90 fold and the “induction of the promoter (in words)” value ([2]; aeration and non-aeration conditions) was “efficient inducer”.

For `C=CC1=C(C)c2cc3[n-]c(cc4[n-]c(cc5nc(cc1n2)C(C)=C5C=C)c(C)c4CCC(=O)O)c(CCC(=O)O)c3C.[Cl-].[Fe+3]` [hemin], the “induction of beta-galactosidase (in words)” value [3] is listed as “strong induction”, the “induction of the ygƒCBA operon” value (ygƒCBA operon; aeration conditions) is listed as “up to 50 fold” and the “induction of the ygƒCBA operon” value (ygƒCBA operon; non-aeration conditions) is listed as “up to 80 fold”. For the same compound, the “amount of inducer resulting” value [1, 4] was 1 µM, the “induction (in words)” value [1] was “efficient” and the “amount of inducer resulting” value ([1]; M17-glucose medium, non-aeration and aeration) was 1 µM. The “induction over background without hemin” value ([1]; aeration conditions) was “more than 150 fold”, the “induction over background without hemin” value ([1]; non-aeration conditions) was “less than 50 fold” and the “induction of the promoter (in words)” value [1] was “efficient inducers”. For the same compound, the “fold induction of beta-galactosidase” value ([2]; aeration, inducer added during growth (OD600 ~0.1), cells recovered at OD600=1) was 80 fold, the “fold induction of beta-galactosidase” value ([2]; aeration, inducer added simultaneously with the bacteria, cells recovered at OD600=1) was 70 fold and the “increase of beta-galactosidase expression” value ([2]; depending on the heme concentration and the culture conditions) was “up to 100 fold”.
